Values after ≈ are worked out from the molar mass of the structure shown.
How the values were obtained:
[1] = target: Serine/threonine-protein kinase pim-1 (Homo sapiens, UniProt P11309); assay: Inhibition of PIM1 (unknown origin) assessed as reduction in BAD phosphorylation at Ser-112 residue by TR-FRET assay
[2] = target: Serine/threonine-protein kinase pim-2 (Homo sapiens, UniProt Q9P1W9); assay: Inhibition of PIM2 (unknown origin) assessed as reduction in BAD phosphorylation at Ser-112 residue by TR-FRET assay
[3] = target: Voltage-gated inwardly rectifying potassium channel KCNH2 (Homo sapiens, UniProt Q12809); assay: Inhibition of human ERG
[4] = target: Serine/threonine-protein kinase PIM (Homo sapiens, UniProt P11309+Q9P1W9+Q86V86); assay: Inhibition of PIM in human KG1 cells assessed as reduction in pS6 level; format: cell-based
[5] = test system: KG-1; assay: Antiproliferative activity against human KG1 cells; format: functional, cell-based
[6] = Permeability in human Caco2/TC7 cells at 5 uM; format: ADME, cell-based; settings: for permeability: caco2/tc7, 5 µM, 5 µM; for Papp at 5 µM: Caco-2, read-out: permeability
[7] = Clearance in human liver microsomes assessed as drug extraction at 5 uM; format: ADME, Microsome; settings: for CLH: microsomes, 5 µM; for hepatic extraction ratio at 5 µM: liver microsomes, read-out: CLH
[8] = Clearance in mouse liver microsomes assessed as drug extraction at 5 uM; format: ADME, Microsome; settings: for hepatic extraction ratio at 5 µM: liver microsomes, read-out: CLH; for CLH: microsomes, 5 µM
[9] = Thermodynamic solubility in pH 7.4 solution; format: physicochemical; settings: buffer, read-out: Therm_solubility

Structure (SMILES)	IC50 [1] [µM]	IC50 [2] [µM]	EC50 [4] [µM]	permeability [6] [×10⁻⁷ cm/s]	CLH [7] [%]	hepatic extraction ratio at 5 µM [8]	Ki [1] [µM]	Papp at 5 µM [6] [×10⁻⁶ cm/s]	hepatic extraction ratio at 5 µM [7]	CLH [8] [%]	solubility thermodynamic [9] [µM]	IC50 [3] [µM]	EC50 ([5]; Homo sapiens, KG-1) [µM]	EC50 ([5]; kg-1) [µM]
CC1(C#Cc2c(Cl)c3c(Cl)cc(C(N)=O)nc3n2[C@H]2CCCNC2)COC1	0.0016	0.0057	0.037	–	–	0.19	0.0012	2.9	0.05	–	–	3	0.119	–
CC1(CC#Cc2c(Cl)c3c(Cl)cc(C(N)=O)nc3n2[C@H]2CCCNC2)COC1	0.0024	0.0157	0.033	–	–	0.35	–	1.2	0.12	–	–	5	0.289	–
NC(=O)c1cc(Cl)c2c(Cl)c(C#CC3COCCO3)n([C@H]3CCCNC3)c2n1 (stereo in doubt; 22a)	0.0023	0.0088	0.07	81	–	–	–	–	0.1	30	–	1.4	–	0.077
CN1CC(C#Cc2c(Cl)c3c(Cl)cc(C(N)=O)nc3n2[C@H]2CCCNC2)CC1=O (stereo partly drawn)	0.0031	0.0175	0.128	–	–	0.22	0.0012	0.05	0.05	–	–	> 20	0.155	–
COC(C)(C)CC#Cc1c(Cl)c2c(Cl)cc(C(N)=O)nc2n1[C@H]1CCCNC1	0.0023	0.0104	0.061	–	–	0.33	–	4.5	0.12	–	1.2 (≈ 0.508 µg/mL)	4	0.172	–
COCC(C)(C)C#Cc1c(Cl)c2c(Cl)cc(C(N)=O)nc2n1[C@H]1CCCNC1	0.0016	0.004	0.098	–	–	0.32	–	4.8	0.1	–	–	1.1	0.219	–

Now from value to compound, other results behind:

IC50 [1] [µM]	IC50 [2] [µM]	EC50 [4] [µM]	permeability [6] [×10⁻⁷ cm/s]	CLH [7] [%]	hepatic extraction ratio at 5 µM [8]	Ki [1] [µM]	Papp at 5 µM [6] [×10⁻⁶ cm/s]	hepatic extraction ratio at 5 µM [7]	CLH [8] [%]	solubility thermodynamic [9] [µM]	Structure (SMILES)	IC50 [3] [µM]	EC50 ([5]; Homo sapiens, KG-1) [µM]	EC50 ([5]; kg-1) [µM]
0.0028	0.0061	0.283	8	6	0.22	–	–	–	–	–	NC(=O)c1cc(Cl)c2c(Cl)c(C#CC3CNCCO3)n([C@H]3CCCNC3)c2n1 (stereo in doubt; 29a)	6	0.365	–
0.0014	0.0076	0.051	2	0	–	0.0009	–	–	15	–	NC(=O)c1cc(Cl)c2c(Cl)c(C#CC3CNCCO3)n([C@H]3CCCNC3)c2n1 (stereo in doubt; 29b)	> 20	–	0.197
0.0058	0.0294	0.09	–	–	0.08	–	6.5	0.03	–	–	CC(C)(C#N)CC#Cc1c(Cl)c2c(Cl)cc(C(N)=O)nc2n1[C@H]1CCCNC1	3	0.113	–
0.0047	0.021	0.133	–	–	0.06	–	0.4	0.01	–	–	CC(C)(CC#Cc1c(Cl)c2c(Cl)cc(C(N)=O)nc2n1[C@H]1CCCNC1)C(N)=O	> 10	0.269	–
0.002	0.0067	0.093	–	–	0.26	–	0.01	0.03	–	–	NC(=O)c1cc(Cl)c2c(Cl)c(C#CCN3CCCC3=O)n([C@H]3CCCNC3)c2n1	> 20	0.178	–
0.0044	0.021	0.137	–	–	–	–	3.2	–	–	207 (≈ 84.3 µg/mL)	NC(=O)c1cc(Cl)c2c(Cl)c(C#CC3CCCO3)n([C@H]3CCCNC3)c2n1 (stereo in doubt; 20a)	–	–	0.223
